What was measured:
[1] = Effect on acute food intake (AFI) in normal NMRI mice; format: in vivo; conditions: male NMRI mice, 10 nmol/kg s.c. once, % vs. vehicle group
Description: Effect on Acute Food Intake in Normal NMRI Mice
Male NMRI mice were obtained from Charles River (Charles River, Research Models & Services Germany GmbH) or from JanVier (JanVier Labs, France) at 5 weeks of age. […] Room temperature was controlled to 21° C.±1° C., with 60%±20% humidity.
Animals were transferred 5-7 days before the start of the study to a real-time food intake monitoring system, HM-2 system (MBRose, Denmark), to allow acclimatization to experimental conditions. As the animals were uniquely identified with microchips, each individual animal was identified by its microchip upon entry and exit from the food channel. Randomization of the mice for each study group (n=7-8) was based on body weight measured the day before the start of the study. A vehicle-treated (50 mM phosphate buffer pH7 with 5% Mannitol) group was included in each experiment. Six hours before the start of the night phase animals were fasted. One hour before the dark phase animals were dosed once subcutaneously (10 nmol/kg) with test peptide. […] The food intake of the treated groups was normalized (in %) to the average food intake of the group receiving vehicle (Table 1). Statistical significance was evaluated using One-way analysis of variance with Turkey's multiple comparison test. P<0.05 was considered statistically significant.

[2] = Effect on body weight loss and food intake in wildtype Diet Induced Obesity (DIO) mice; format: in vivo; conditions: for BW 30 nmol/kg 5 day (body weight loss vs. vehicle group): 30 nmol/kg s.c. once daily
Excerpt: Effect on Body Weight Loss in Wildtype Diet Induced Obesity Mice
Male C57BL6/J pre-fed on 60% high fat diet were obtained from The Jackson Laboratories at >16 weeks of age. Upon arrival of the Diet Induced Obesity (DIO) mice, the mice where single housed to obtain accurate and individual food intake measurements of each animal and assigned an animal number. […] During the entire study animals had ad libitum access to food and water.
Before start of treatment a stratified randomization was performed based on the body weight measured in week −1 prior study start. At study start the age of mice was around 20 weeks. Bodyweight and food intake were measured daily before compound administration. Animals were dosed around one hour before start of the night phase by subcutaneous injection of 30 nmol/kg once daily for 5 till 28 days depending on the experiment. Control animals were dosed by subcutaneous injection daily with vehicle.

SMILES | AFI 10 nmol/kg 24 h (food intake normalized to vehicle group) [1] | BW 30 nmol/kg 5 day (body weight loss vs. vehicle group) [2] | body weight lowering efficacy (% BW), combination with Compound I compared to combination with semaglutide ([2]; once daily (FIGS. 6A, 8A vs. 5A, 7A)) | duration of food intake reduction, combination with Compound I vs. combination with semaglutide ([2]; once daily (FIGS. 6B, 8B vs. 5B, 7B)) | total food intake, combination with Compound I ([2]; once daily, area under the curve of food intake (FIGS. 6D, 8D)) | body weight loss in combination with Compound I ([2]; once daily, combination with Compound I (FIGS. 6A, 8A, 10A)) | effect on body weight in combination with semaglutide ([2]; once daily, combination with semaglutide (FIGS. 5A, 7A, 9A))
CC[C@H](C)[C@H](NC(=O)[C@H](CCC(=O)O)NC(=O)[C@H](CCC(=O)O)NC(=O)[C@@H]1CCCN1C(=O)[C@H](CO)NC(=O)[C@H](C)NC(=O)[C@H](CC(=O)O)NC(=O)[C@H](CCC(=O)O)NC(=O)[C@H](CCC(=O)O)NC(=O)[C@@H]1CCCN1C(=O)[C@H](CCCCNC(=O)COCCOCCNC(=O)COCCOCCNC(=O)CC[C@H](NC(=O)CCCCCCCCCCCCCCCCC(=O)O)C(=O)O)NC(=O)[C@H](C)NC(=O)[C@@H]1CCCN1C(=O)[C@H](C)NC(=O)CC(C)C)C(=O)N[C@@H](CCC(N)=O)C(=O)N[C@@H](CCCNC(=N)N)C(=O)N[C@@H](Cc1ccc(O)cc1)C(=O)N[C@@H](Cc1ccc(O)cc1)C(=O)N[C@H](C(=O)N[C@@H](CO)C(=O)N[C@@H](CC(C)C)C(=O)N[C@@H](CCCNC(=N)N)C(=O)N[C@@H](Cc1c[nH]cn1)C(=O)N[C@@H](Cc1ccc(O)cc1)C(=O)N[C@@H](Cc1ccc(O)cc1)C(=O)N[C@@H](CC(N)=O)C(=O)N[C@@H](Cc1c[nH]c2ccccc12)C(=O)N[C@@H](CC(C)C)C(=O)N[C@H](C(=O)N[C@@H](CCCNC(=N)N)C(=O)N[C@@H](CCC(N)=O)C(=O)N[C@@H](CCCNC(=N)N)C(=O)N[C@@H](Cc1ccc(O)cc1)C(N)=O)[C@@H](C)O)C(C)C [Compound E, N{alpha-4}-(3-methylbutanoyl)-N{epsilon-7}-[2-(2-{2-[2-(2-{2-[(4S)-4-carboxy-4-(17-carboxyheptadecanamido)butanamido]ethoxy}ethoxy)acetamido]ethoxy}ethoxy)acetamido]-[4A,6A,7K,9E,17I,18Q,22V,28Y,30W,31L]hPYY(4-36)] | 48% | 7.3% | greater body weight lowering efficacy | longer-lasting effect on food intake | pronounced total food intake reduction | Synergistic body weight loss | synergistic effect
CC[C@H](C)[C@H](NC(=O)[C@H](CCC(=O)O)NC(=O)[C@H](CCC(=O)O)NC(=O)[C@@H]1CCCN1C(=O)[C@@H](NC(=O)[C@H](C)NC(=O)[C@H](CC(=O)O)NC(=O)[C@H](CCC(=O)O)NC(=O)[C@H](CCC(=O)O)NC(=O)[C@@H]1CCCN1C(=O)[C@H](CCCCNC(=O)COCCOCCNC(=O)COCCOCCNC(=O)CC[C@H](NC(=O)CCCCCCCCCCCCCCCCC(=O)O)C(=O)O)NC(=O)[C@H](CCC(=O)O)NC(=O)[C@@H]1CCCN1C(=O)[C@H](C)NC(=O)CC(C)C)[C@@H](C)O)C(=O)N[C@@H](CCC(N)=O)C(=O)N[C@@H](CCCNC(=N)N)C(=O)N[C@@H](Cc1ccc(O)cc1)C(=O)N[C@@H](Cc1ccc(O)cc1)C(=O)N[C@H](C(=O)N[C@@H](CO)C(=O)N[C@@H](CC(C)C)C(=O)N[C@@H](CCCNC(=N)N)C(=O)N[C@@H](Cc1c[nH]cn1)C(=O)N[C@@H](Cc1ccc(O)cc1)C(=O)N[C@@H](Cc1ccc(O)cc1)C(=O)N[C@@H](CC(N)=O)C(=O)N[C@@H](Cc1c[nH]c2ccccc12)C(=O)N[C@@H](CC(C)C)C(=O)N[C@H](C(=O)N[C@@H](CCCNC(=N)N)C(=O)N[C@@H](CCC(N)=O)C(=O)N[C@@H](CCCNC(=N)N)C(=O)N[C@@H](Cc1ccc(O)cc1)C(N)=O)[C@@H](C)O)C(C)C [Compound G, N{alpha-4}-(3-methylbutanoyl)-N{epsilon-7}-[2-(2-{2-[2-(2-{2-[(4S)-4-carboxy-4-(17-carboxyheptadecanamido)butanamido]ethoxy}ethoxy)acetamido]ethoxy}ethoxy)acetamido]-[4A,7K,9E,13T,17I,18Q,22V,28Y,30W,31L]hPYY(4-36)] | 44% | 10.6% | – | – | – | – | –
CC[C@H](C)[C@H](NC(=O)[C@H](CCC(=O)O)NC(=O)[C@H](CCC(=O)O)NC(=O)[C@@H]1CCCN1C(=O)[C@H](CO)NC(=O)[C@H](C)NC(=O)[C@H](CC(=O)O)NC(=O)[C@H](C)NC(=O)[C@H](CCC(=O)O)NC(=O)[C@@H]1CCCN1C(=O)[C@H](CCCCNC(=O)COCCOCCNC(=O)COCCOCCNC(=O)CC[C@H](NC(=O)CCCCCCCCCCCCCCCCC(=O)O)C(=O)O)NC(=O)[C@H](CCC(=O)O)NC(=O)[C@@H]1CCCN1C(=O)[C@H](C)NC(=O)CC(C)C)C(=O)N[C@@H](CCC(N)=O)C(=O)N[C@@H](CCCNC(=N)N)C(=O)N[C@@H](Cc1ccc(O)cc1)C(=O)N[C@@H](Cc1ccc(O)cc1)C(=O)N[C@H](C(=O)N[C@@H](CO)C(=O)N[C@@H](CC(C)C)C(=O)N[C@@H](CCCNC(=N)N)C(=O)N[C@@H](Cc1c[nH]cn1)C(=O)N[C@@H](Cc1ccc(O)cc1)C(=O)N[C@@H](Cc1ccc(O)cc1)C(=O)N[C@@H](CC(N)=O)C(=O)N[C@@H](Cc1c[nH]c2ccccc12)C(=O)N[C@@H](CC(C)C)C(=O)N[C@H](C(=O)N[C@@H](CCCNC(=N)N)C(=O)N[C@@H](CCC(N)=O)C(=O)N[C@@H](CCCNC(=N)N)C(=O)N[C@@H](Cc1ccc(O)cc1)C(N)=O)[C@@H](C)O)C(C)C [Compound J, N{alpha-4}-(3-methylbutanoyl)-N{epsilon-7}-[2-(2-{2-[2-(2-{2-[(4S)-4-carboxy-4-(17-carboxyheptadecanamido)butanamido]ethoxy}ethoxy)acetamido]ethoxy}ethoxy)acetamido]-[4A,7K,9E,10A,17I,18Q,22V,28Y,30W,31L]hPYY(4-36)] | 29% | 12.2% | – | – | – | – | –

From US20240091318A1, “COMBINATION THERAPY COMPRISING LONG ACTING GLP-1/GLUCAGON AND NPY2 RECEPTOR AGONISTS” (Boehringer Ingelheim International GmbH, priority 2022, published 2024)
